Experimental data published in ChEMBL document CHEMBL5247613, “Design, synthesis and biological evaluation of a new class of Hsp90 inhibitors vibsanin C derivatives” (Eur J Med Chem, 2022).
Activity calls are given as the source filed them. The calls are words filed in the database; no cut-off is given here.

Columns and labels:
Reticulocyte [1] = assay: Inhibition of HSP90 in rabbit reticulocyte lysates at 10 uM incubated for 3 hrs by denatured luciferase refolding assay; assay type: subcellular; details: Oryctolagus cuniculus
A549 = assay: Antiproliferative activity against human A549 cells assessed as reduction in cell viability incubated for 48 hrs by MTT assay; assay type: functional, cell-based; details: A549, 48 h
MCF7 = assay: Antiproliferative activity against human MCF7 cells assessed as reduction in cell viability incubated for 48 hrs by MTT assay; assay type: functional, cell-based; details: MCF7, 48 h
[2] = Inhibition of HSP90 in rabbit reticulocyte lysates incubated for 3 hrs by denatured luciferase refolding assay; assay type: subcellular, Oryctolagus cuniculus
SMMC-7721 = assay: Antiproliferative activity against human SMMC-7721 cells assessed as reduction in cell viability incubated for 48 hrs by MTT assay; assay type: functional, cell-based; details: SMMC-7721, 48 h
HL-60 = assay: Antiproliferative activity against human HL-60 cells assessed as reduction in cell viability incubated for 48 hrs by MTT assay; assay type: functional, cell-based; details: HL-60, 48 h
SW480 = assay: Antiproliferative activity against human SW480 cells assessed as reduction in cell viability incubated for 48 hrs by MTT assay; assay type: functional, cell-based; details: SW480, 48 h
[3] = biological target: T1, Heat shock protein HSP90 (Homo sapiens) (UniProt P07900+P08238); assay: Binding affinity to full length HSP90 (unknown origin) expressed in Escherichia coli BL21(DE3) cells at 20 uM by NMR STD assay
[4] = biological target: T1, Heat shock protein HSP90 (Homo sapiens); assay: Inhibition of HSP90 in human HL-60 cells assessed as decrease in CDK4 protein expression incubated for 24 hrs by western blot analysis; assay type: cell-based; details: dose 1-10 µM
[5] = biological target: T1, Heat shock protein HSP90 (Homo sapiens); assay: Inhibition of HSP90 in human HL-60 cells assessed as increase in HSP27 protein expression incubated for 24 hrs by western blot analysis; assay type: cell-based; details: dose 1-10 µM
Reticulocyte [6] = assay: Inhibition of HSP90 in rabbit reticulocyte lysates at 500 uM incubated for 3 hrs by denatured luciferase refolding assay; assay type: subcellular; details: Oryctolagus cuniculus

| Compound | inhibition (Reticulocyte [1]) [%] | IC50 (A549) [µM] | IC50 (MCF7) [µM] | IC50 [2] [µM] | IC50 (SMMC-7721) [µM] | IC50 (HL-60) [µM] | IC50 (SW480) [µM] | Activity [3] | inhibition [4] | inhibition [5] | inhibition (Reticulocyte [6]) [%] |
| --- | --- | --- | --- | --- | --- | --- | --- | --- | --- | --- | --- |
| CC(=O)O[C@H]1C(=O)[C@@]2(C)[C@H]([C@H](OC(=O)c3ccccc3)[C@]3(O)C[C@H](OC(=O)[C@H](O)[C@@H](NC(=O)c4ccccc4)c4ccccc4)C(C)=C1C3(C)C)[C@]1(OC(C)=O)CO[C@@H]1C[C@@H]2O [PACLITAXEL] | – | < 0.008 | < 0.008 | – | 0.097 | < 0.008 | < 0.008 | – | – | – | – |
| CC(C)=CCC[C@@]1(C)CC=C(CF)c2nnc(C)cc2[C@@H]1/C=C/OC(=O)C=C(C)C | 77.8 | 20.5 | 17.6 | 0.37 | 15.7 | 3.45 | 18.2 | – | – | – | – |
| CC(C)=CCC[C@@]1(C)CC=C(COC(=O)c2ccc3cc[nH]c3c2)c2nnc(C)cc2[C@@H]1/C=C/OC(=O)C=C(C)C | 66.6 | – | – | 4.57 | – | – | – | – | – | – | – |

More lines, in order of falling IC50 [2], values ahead:

| inhibition (Reticulocyte [1]) [%] | IC50 (A549) [µM] | IC50 (MCF7) [µM] | IC50 [2] [µM] | IC50 (SMMC-7721) [µM] | IC50 (HL-60) [µM] | IC50 (SW480) [µM] | Activity [3] | inhibition [4] | inhibition [5] | inhibition (Reticulocyte [6]) [%] | Compound |
| --- | --- | --- | --- | --- | --- | --- | --- | --- | --- | --- | --- |
| – | – | – | 468 | – | – | – | – | – | – | 78.9 | CO[C@@H]1[C@@H](OC(N)=O)[C@@H](O)[C@H](Oc2ccc3c(O)c(NC(=O)c4ccc(O)c(CC=C(C)C)c4)c(=O)oc3c2C)OC1(C)C [NOVOBIOCIN] |
| 71 | – | – | 6.05 | – | – | – | – | – | – | – | CC(C)=CCC[C@@]1(C)CC=C(COC(=O)CCC(=O)O)c2[nH]c(C)cc2[C@@H]1/C=C/OC(=O)C=C(C)C |
| 94.6 | > 40 | > 40 | 0.27 | > 40 | > 40 | > 40 | – | – | – | – | CC(C)=CCC[C@@]1(C)CC=C(COC(=O)CCC(=O)O)c2nnc(C)cc2[C@@H]1/C=C/OC(=O)C=C(C)C |
| 88.2 | > 40 | > 40 | 0.27 | > 40 | 16.9 | > 40 | Active | Dose-Dependent Effect | Dose-Dependent Effect | – | CC(C)=CCC[C@@]1(C)CC=C(COC(=O)CCC(=O)O)c2oc(C)cc2[C@@H]1/C=C/OC(=O)C=C(C)C |
